Measured values from patent publication US7384927B2, “Alkylated porphyrins as pesticides acting both in the presence and absence of light” (priority 2003, dated 2008).

What was measured:
Assay type in all cases: in vivo
[1] = tested on: Ceratitis capitata flies; experiment: Photoinsecticidal action: fly survival after bait and visible light irradiation (artificial lamp); conditions: 8 μM in bait, survival 10 h after irradiation
Experimental: (§1) Porphyrins: • a) meso[tri(N-methyl-pyridyl), mono(N-dodecyl-pyridyl)]porphine (abbr.: C12) • b) meso[tri(N-methyl-pyridyl), mono(N-tetradecyl-pyridyl)]porphine (abbr.: C14) • c) meso[tri(N-methyl-pyridyl), mono(N-octadecyl-pyridyl)]porphine (abbr.: C18) Bait: Aqueous solution containing 10% sucrose and 1% autolysed yeast Flies: • a) Ceratitis capitata (fruit fly) age: 1 week; weight: 5-6 mg • b) Bactrocera oleae (olive fly) age: 10 days; weight: 4-4.5 mg • c) Stomoxis calcitrans (stable fly) age: 10 days; weight: 12 mg Irradiation: • a) High pressure halogen lamp, equipped with infrared and UV filters, emission 360-850 nm, operated at intensities in the 760-2,000 μE s^−1m^−2 range • b) Sunlight, mid June at Padua latitude, average intensity of […] μE s^−1m^−2 with minimum and maximum values of 950 and, respectively, 1,380 μE s^−1m^−2
The irradiations were performed for 1 h, then the flies were kept in dim light for monitoring the survival. Control flies were irradiated under identical conditions after feeding with a porphyrin-free bait.
The irradiations were performed for 1 h at a fluence-rate of 1220 μE s^−1m^−2. The survival was evaluated 10 h after the end of irradiation. […] The porphyrins are abbreviated as following: HP: haematoporphyrin; C1: meso-tetra(N-methyl-pyridyl)porphine.
The survival was evaluated 10 h after the end of irradiation.
An appropriate number of flies (50 flies per each experiment) was caged in 115×55×70 mm Plexiglas cages with several holes (ø=0.5 mm) and starved for 36 h. Then, depending on the protocol to be adopted for each specific experiment, the flies were fed with the bait (10% sucrose and 1% autolysed yeast in neutral aqueous solution), which was either porphyrin-free or added with a predetermined concentration of the porphyrin. These flies were then used in the various experimental sessions. […]

[2] = tested on: Ceratitis capitata flies; experiment: Photoinsecticidal action: fly survival after bait and sunlight irradiation; conditions: 8 μM in bait, 12 h after feeding, survival 1 h after irradiation
Experimental: as §1
The survival was evaluated 1 h after the end of irradiation.
An appropriate number of flies (50 flies per each experiment) was caged in 115×55×70 mm Plexiglas cages with several holes (ø=0.5 mm) and starved for 36 h. Then, depending on the protocol to be adopted for each specific experiment, the flies were fed with the bait (10% sucrose and 1% autolysed yeast in neutral aqueous solution), which was either porphyrin-free or added with a predetermined concentration of the porphyrin. These flies were then used in the various experimental sessions.

[3] = tested on: Ceratitis capitata flies; experiment: Insecticidal action in the dark: fly survival after porphyrin bait; conditions: for mortality of the flies in the dark: C. capitata, even at the largest porphyrin dose (8.1 μM); for Survival (% of control untreated flies): dark, fed 24 h, survival 12 h after change to porphyrin-free bait
Experimental: For comparison, data obtained with two conventional porphyrins (as those described in WO 97/29637) offered to the insects for 24 h at a 3.0 and 8.1 μmolar concentration in the same bait are also shown. In all cases, the survival was determined 12 hours after changing food supply from a porphyrin-containing to a porphyrin-free bait. […] These flies were then used in the various experimental sessions. […] The number of survivors was evaluated 12 h after switching from administration of a porphyrin-containing bait to a porphyrin-free bait. In none of the experiments was mortality or any apparent toxic effect observed in control flies (flies not fed with porphyrin, see survival at 0 μM porphyrin concentration).

[4] = fluence-rate 760 μE s^−1m^−2, irradiated 24 h after feeding (title)
[5] = fluence-rate 1220 μE s^−1m^−2, irradiated 24 h after feeding (title)
[6] = fluence-rate 1500 μE s^−1m^−2, irradiated 24 h after feeding (title)
[7] = fluence-rate 2000 μE s^−1m^−2, irradiated 24 h after feeding (title)
[8] = time interval feeding-irradiation 0 h, irradiation 1 h at 1220 μE s^−1m^−2
[9] = time interval feeding-irradiation 12 h, irradiation 1 h at 1220 μE s^−1m^−2
[10] = time interval feeding-irradiation 24 h, irradiation 1 h at 1220 μE s^−1m^−2
[11] = time interval feeding-irradiation 48 h, irradiation 1 h at 1220 μE s^−1m^−2

SMILES | Survival (% of control untreated flies) [1, 4] | Survival (% of control untreated flies) [1, 5] | Survival (% of control untreated flies) [1, 6] | Survival (% of control untreated flies) [1, 7] | Survival (% of control untreated flies) [1, 8] | Survival (% of control untreated flies) [1, 9] | Survival (% of control untreated flies) [1, 10] | Survival (% of control untreated flies) [1, 11] | Survival (% of control untreated flies) ([2]; sunlight 15 min) | Survival (% of control untreated flies) ([2]; sunlight 30 min) | Survival (% of control untreated flies) ([2]; sunlight 45 min) | Survival (% of control untreated flies) ([2]; sunlight 60 min) | mortality of the flies in the dark [3] | Survival (% of control untreated flies) ([3]; 3.00 μM in bait) | Survival (% of control untreated flies) ([3]; 8.10 μM in bait)
CC1=C(CCC(=O)O)c2cc3[nH]c(cc4nc(cc5[nH]c(cc1n2)c(C)c5C(C)O)C(C)=C4C(C)O)c(C)c3CCC(=O)O (stereo not drawn) [Hp, Haematoporphyrin, reference compound] | 81 % of control untreated flies | 20 % of control untreated flies | 11 % of control untreated flies | 8 % of control untreated flies | 20 % of control untreated flies | 37 % of control untreated flies | 58 % of control untreated flies | 61 % of control untreated flies | 75 % of control untreated flies | 70 % of control untreated flies | 64 % of control untreated flies | 40 % of control untreated flies | no mortality of the flies was observed | 100 % of control untreated flies | 100 % of control untreated flies
C[n+]1ccc(-c2c3nc(c(-c4cc[n+](C)cc4)c4ccc([nH]4)c(-c4cc[n+](C)cc4)c4nc(c(-c5cc[n+](C)cc5)c5ccc2[nH]5)C=C4)C=C3)cc1 [C1, Meso-tetra (N-methyl-pyridyl) porphine, reference compound] | 100 % of control untreated flies | 90 % of control untreated flies | 81 % of control untreated flies | 73 % of control untreated flies | 90 % of control untreated flies | 94 % of control untreated flies | 100 % of control untreated flies | 97 % of control untreated flies | 100 % of control untreated flies | 100 % of control untreated flies | 93 % of control untreated flies | 97 % of control untreated flies | no mortality of the flies was observed | 100 % of control untreated flies | 100 % of control untreated flies
